Where two headings read alike, the source gives them in different places. Blank lines part the entries; values can stand above or below the compound they belong to.
Experiments:
[1] = clinical; parameters: species or system patients; details: human, in vivo, po
From the text: The pharmaceutical composition as per Example 1 above has been orally administered to parkinsonian patients manifesting the on-off phenomenon, in order to evaluate the bioavailability and the clinical effect of LDME in this formulation in comparison with levodopa.
(§1) As previously illustrated, patients manifesting the on-off phenomenon alternate between periods when parkinsonian signs are relatively severe and intervals when parkinsonism is largely, if not completely, replaced by unvoluntary movements.
The absorption of LDME was infact very rapid, reaching the maximum concentration peak at 40-45 minutes from the administration.
Levodopa plasmatic levels after single oral administration
of corresponding doses of active principle (mg 200) re-
spectively of LDME and levodopa in two patients.

[2] = test system: parkinsonian patients manifesting the on-off phenomenon; experiment: Clinical effect of oral LDME (Example 1 composition) vs levodopa in parkinsonian patients manifesting the on-off phenomenon; assay type: in vivo
From the text: as §1

[3] = Solubility; assay type: physicochemical; details: aqueous compositions
[4] = test system: reserpine-treated cats; details: cited from earlier work
[5] = other experimental patterns; cited from earlier work
[6] = Absorption by rectal route
[7] = test system: Parkinson's disease; details: cited from earlier work
[8] = in vivo
[9] = cited from earlier work

- absorption [1]: very rapid
- time of maximum concentration peak from the administration [1]: 40 to 45 min
- Levodopa plasmatic levels ([1]; 0 min): 0 µg/mL
- Levodopa plasmatic levels ([1]; 330 min): 0.20 µg/mL
- dyskinesias at the moment of the appearance of the mobility ("on" phase) ([2]; composition of Example 1, subjects presenting "long-term syndrome", preliminary trials): does not seem to induce dyskinesias
- solubility [3]: high solubility
Compound: COC(=O)[C@@H](N)Cc1ccc(O)c(O)c1 [LDME, levodopa methyl ester]
- duration of action ("on" period duration) in respect to levodopa ([2]; composition of Example 1): superior
- onset of the therapeutic effect ([2]; composition of Example 1): 20 to 30 min
- effects compared with levodopa (brain catecholamine levels, conditioned avoidance response) [4]: causes the same effects as levodopa
- activity compared with the starting compound (levodopa) [5]: as active as the starting compound
- rectal absorption / plasma levels by rectal administration [6]: detectable plasma levels sufficient to assure a therapeutic effect

Compound: CC(C)C[C@H]1C(=O)N2CCC[C@H]2[C@]2(O)O[C@](NC(=O)[C@@H]3C=C4c5cccc6[nH]c(Br)c(c56)C[C@H]4N(C)C3)(C(C)C)C(=O)N12 [bromocriptine]
- prevention or reduction of response fluctuations ([7]; alternative therapies with dopaminergic drugs): do not give actual advantages in prevention or reduction of response fluctuations

- Levodopa plasmatic levels ([1]; 0 min): 0 µg/mL
- Levodopa plasmatic levels ([1]; 0.25 h): 0.35 µg/mL
- Levodopa plasmatic levels ([1]; 0.5 h): 0.66 µg/mL
- Levodopa plasmatic levels ([1]; 0.75 h): 0.88 µg/mL
- Levodopa plasmatic levels ([1]; 1 h): 1.15 µg/mL
- Levodopa plasmatic levels ([1]; 80 min): 1.67 µg/mL
- Levodopa plasmatic levels ([1]; 100 min): 1.39 µg/mL
- Levodopa plasmatic levels ([1]; 2 h): 1.35 µg/mL
- Levodopa plasmatic levels ([1]; 140 min): 1.05 µg/mL
- Levodopa plasmatic levels ([1]; 160 min): 0.82 µg/mL
- Levodopa plasmatic levels ([1]; 3 h): 0.80 µg/mL
- Levodopa plasmatic levels ([1]; 3.5 h): 0.58 µg/mL
- Levodopa plasmatic levels ([1]; 4 h): 0.45 µg/mL
- Levodopa plasmatic levels ([1]; 4.5 h): 0.38 µg/mL
- Levodopa plasmatic levels ([1]; 5 h): 0.17 µg/mL
- concentration at 0.25 h ([1]; Levodopa plasmatic levels): 310 ng/mL
- concentration at 0.5 h ([1]; Levodopa plasmatic levels): 1050 ng/mL
- concentration at 0.75 h ([1]; Levodopa plasmatic levels): 1410 ng/mL
- concentration at 1 h ([1]; Levodopa plasmatic levels): 1130 ng/mL
- concentration at 80 min ([1]; Levodopa plasmatic levels): 1470 ng/mL
- concentration at 100 min ([1]; Levodopa plasmatic levels): 1170 ng/mL
- concentration at 2 h ([1]; Levodopa plasmatic levels): 930 ng/mL
- concentration at 140 min ([1]; Levodopa plasmatic levels): 1030 ng/mL
- concentration at 160 min ([1]; Levodopa plasmatic levels): 820 ng/mL
- concentration at 3 h ([1]; Levodopa plasmatic levels): 650 ng/mL
- concentration at 3.5 h ([1]; Levodopa plasmatic levels): 700 ng/mL
- concentration at 4 h ([1]; Levodopa plasmatic levels): 490 ng/mL
- concentration at 4.5 h ([1]; Levodopa plasmatic levels): 350 ng/mL
- concentration at 5 h ([1]; Levodopa plasmatic levels): 280 ng/mL
- concentration at 5.5 h ([1]; Levodopa plasmatic levels): 420 ng/mL
- rectal absorption / plasma levels by rectal administration [8]: not absorbed by rectal mucosa
Compound: N[C@@H](Cc1ccc(O)c(O)c1)C(=O)O [levodopa, (-)-3-(3,4-dihydroxyphenyl)-L-alanine]
- solubility [9]: slightly soluble
- duration of efficacy ("end-of-dose deterioration") ([7]; chronic treatment per os): 3 to 4 h
- unwanted effects ([7]; chronic treatment per os): abnormal unvoluntary movements
- clinical response ([7]; constant intravenous infusion): a stable clinical response can be maintained for hours

— US4826875A, “Pharmaceutical compositions containing levodopa methyl ester, preparation and therapeutic applications thereof” (priority 1986, dated 1989)
